pIC50: −log10 of the molar value.
Columns and labels:
[1] = molecular target: T1, CXCR4 (Homo sapiens, UniProt P61073); assay: Inhibition of binding human SDF-1 (125I-SDF-1) to CEM cells; conditions: 125I-SDF-1 binding to human T cell strain CEM cells, 4° C., 60 minutes
T1 construct: a human T cell strain in which CXCR4 is known to be expressed; endogenous in cells; host or cells: CEM cells (human T cell strain)
Experimental: Specifically, as a system of screening a compound that inhibits the binding between SDF-1 and CXCR4, for example a system of measuring the binding between iodine-labeled SDF-1 and a human T cell strain in which CXCR4 is known to be expressed is operable.
To human T cell strain CEM cells in a binding buffer (containing HEPES and BSA), the test compound and ^125I-SDF-1 (NEN) were added and the mixture was incubated at 4° C. for 60 minutes. The reacted CEM cells were rapidly filtrated with a GF/B membrane filter plate (Packard) to adsorb. The plate was washed with phosphate buffered saline (hereinafter abbreviated to PBS) three times and then dried. Microscint+20 (Packard) was added thereto. An amount of the radioactivity bound to the CEM cells was measured using Top Count (Packard) and inhibition (%) of the test compound was calculated according to the following equation: Inhibition={(Et−Ea)/(Et−Ec)}×100
Et: Amount of radioactivity when the test compound is not added,
Ec: Amount of radioactivity when non-radioactive SDF-1 (Pepro Tech) is added in an amount of 1,000 times as much as ^125I-SDF-1 as a test compound,
Ea: Amount of radioactivity when the test compound is added.

[2] = Artificial lipid membrane binding using Biacore S51 system (in vitro phospholipidosis risk); conditions: for Determination: Biacore lipid membrane binding, positive if corrected value 150 or more; for Corrected value of binding response (RU): compound 50 μM in PBS/5% DMSO (pH 7.4), 37° C., DOPA liposome on Sensor Chip L1
Experimental: 10 mM of 1,2-dioleoyl-sn-glycero-3-phosphate monosodium salt (hereinafter abbreviated as DOPA) chloroform solution was evaporated to dryness by means of an aspirator, and 0.6 mL of PBS/5% dimethyl sulfoxide (hereinafter abbreviated as DMSO) was added. The solution was fully suspended by the vortex mixer, and the freezing and thawing were repeated for 5 times. Liposome was created by the liposome preparation instrument (manufactured by Avestin Inc.) and two syringes, and was diluted to 0.5 mM with PBS/5% DMSO just prior to immobilization.
38 μl of 1×PBS was added to 2 μl of a DMSO solution (10 mM), and the 360 μl of 1×PBS/5% DMSO was further added thereto and the 50 μM of final concentration in PBS/5% DMSO was prepared and measured.
All of the following analysis used Biacore® S51 system and the measurement conditions were set by Biacore S51 Control Soft.
The measurement temperature was set to be 37° C., and PBS/5% DMSO (pH 7.4) was used as a buffer. Series S Sensor Chip L1 was used for a sensor chip. DOPA was immobilized in one of the measuring spots on the sensor surface and the central spot was used as a reference.
Immobilization of liposome was conducted at a flow rate of 10 μL/min for about 3 minutes and then the compound was added at a flow rate of 30 μL/min and the interaction was measured. The measurement conditions are as follows: • Assay buffer: PBS/5% DMSO (pH 7.4) • Measurement temperature: 37° C. • Sensor chip: Series S Sensor Chip L1 • Flow rate: 10 μL/min at the time of the liposome immobilization; 30 μL/min at the time of the measurement of interaction with the compound Regeneration: 20 mM CHAPS (3-[(3-cholamidopropyl)dimethylammonio]-1-propanesulfonate), isopropanol/aqueous 50 mM sodium hydroxide solution=40/60 (volume ratio) mixture (60 seconds) (4) Data Processing
The data processing was conducted by means of method of Abdiche et al. (Analytical biochemistry, 328, 233-243 (2004)) by using Biacore S51 Evaluation Soft.
Regarding the value of binding response (RU) in which the value of reference was subtracted, it was divided by a sample molecular weight after minute error of the DMSO concentration included in the sample solution was corrected. In addition, the value obtained here was divided by an amount of capture at the time of the cycle because the value obtained here was proportional to the amount of capture of the liposome and the value was multiplied by a million to be considered as a corrected value (Corrected value=1,000,000×RU (test compound)/molecular quantity (test compound) RU (liposome)).
Propranolol, amiodarone, desipramine, imipramine and procaine were added as the controls, and it was recognized that the variation of the binding response was within about 10 to 15%.
The compound wherein a value of the binding response after the correction was 150 or more was determined as positive.

[3] = tested on: CHL/IU (cell line derived from a Chinese hamster lung); assay: Phospholipidosis detecting system using fluorescent labeling phospholipid analog (NBD-PE); assay type: cell-based; conditions: for Rate of increase of phopholipid accumulation (%): compound dose: 100 μM, CHL/IU cells, NBD-PE, about 24 hours; for Determination: positive if 25% or more of maximum increase rate of amiodarone
Experimental: 100 μL/well as required (1 dose 2 wells) of cell suspension of CHL/IU (cell line derived from a Chinese hamster lung) (7×10^4 cells/mL) prepared by MEM (minimum essential medium) culture medium was added to a 96-well plate (96-well clear-bottom plate), and cultured for about 24 hours. After culture, the supernatant of the 96-well plate was removed, and the 100 μL/well compounds of each concentration dissolved and suspended in an MEM including 25 μmol/L nitrobenzoxadiazole dipalmitoyl phosphatidylethanolamine (NBD-PE) (hereinafter abbreviated as a NPD-PE medium) were added and treated for about 24 hours. The treatment concentrations of each compound were set to be 6.25, 12.5, 25, 50 and 100 μmol/L. The positive control substance was set to be amiodarone hydrochloride, and the treatment concentrations were set to be 1.25, 2.5, 5, 10 and 20 μmol/L. In addition, 5-well untreated controls (only MEM) and 5-well NBD-PE controls (made by means of adding a 1/100 amount of DMSO to the NBD-PE culture medium) were set per compound, and cultured in the same manner. After finishing the culture, the cultures were washed twice with phosphate buffered saline (hereinafter abbreviated as PBS) (−) 100 μL/well, and the MEM (100 μL) was added to all of the treatment wells including two empty wells for WST-1 background controls and cultured for about a half hour. The fluorescence intensities of each well were measured by using a microplate reader (manufactured by Molecular Devices Inc., SPECTRA max M2; the excitation wavelength 485 nm/fluorescence wavelength 535 nm). Using the average values of each dose×2 wells, a phospholipid increase rate (%) to the NBD-PE control was calculated by using the following calculating formula: Rate of increase of pholipid accumulation (%)=100×{(test compound fluorescence intensity−non-treated control fluorescence intensity)/(NBD-PE control fluorescence intensity−non-treated control fluorescence intensity)} (3) Cytotoxicity Assay 96-well plate measured in the phospholipid accumulation measurement was measured by means of Plate Reader (manufactured by Molecular Devices Inc., SPECTRA max M2) with the main wavelength of 450 nm and the correct wavelength of 690 nm to calculate a Pre value. An amount of 5 μL/well of Premix WS T-1 was added to each of the 96-hole plates by which Pre measurement was conducted. After culture for 2 to 4 hours, the 96-well plate was measured as well as the Pre measurement to calculate an Aft value. Then, the background control value was subtracted from the each measured value. A value which was calculated by subtracting the Pre value from the Aft value was used, then the cell growth rate (%) was calculated by using the following calculating formula: Cell growth rate (%)=100×[(test substance OD)/(NBD-PE control OD)] (4) Determination A test dose that indicated value of 25% or more of the maximum phospholipid accumulation increase rate of amiodarone which was the positive control was determined as positive. In addition, the dose whose cell growth rate was equal to or less than 50% in the cytotoxicity assay was not used for determination of existence or nonexistence of a phospholipidosis inductive effect.

T1 sequence (P61073 whole entry): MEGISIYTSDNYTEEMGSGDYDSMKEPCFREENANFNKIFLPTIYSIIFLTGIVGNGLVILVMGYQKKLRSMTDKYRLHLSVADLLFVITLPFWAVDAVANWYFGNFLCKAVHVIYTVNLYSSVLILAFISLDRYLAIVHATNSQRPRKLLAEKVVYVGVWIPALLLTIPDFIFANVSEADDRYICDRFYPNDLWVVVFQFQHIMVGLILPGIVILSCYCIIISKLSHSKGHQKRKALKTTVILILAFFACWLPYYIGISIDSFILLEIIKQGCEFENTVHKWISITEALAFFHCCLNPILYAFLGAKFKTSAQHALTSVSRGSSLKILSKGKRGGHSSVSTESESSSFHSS

| SMILES | pIC50 [1] | Determination [2] | Corrected value of binding response (RU) [2] | Rate of increase of phopholipid accumulation (%) [3] | Determination [3] |
| --- | --- | --- | --- | --- | --- |
| O=C(O)CCn1ccnc1CN(Cc1ccc(CN2CCC3(CCN(C4CCCCC4)CC3)C2)cc1)Cc1ncc[nH]1 [Example 9 (1), 3-(2-{[{4-[(8-cyclohexyl-2,8-diazaspiro[4.5]dec-2-yl)methyl]benzyl}(1H-imidazol-2-ylmethyl)amino]methyl}-1H-imidazol-1-yl)propionic Acid] | 8.47 | Negative (The compound wherein a value of the binding response after the correction was 150 or more was determined as positive) | 52.0 RU | 6% | Negative (A test dose that indicated value of 25% or more of the maximum phospholipid accumulation increase rate of amiodarone which was the positive control was determined as positive) |
| O=C(O)Cn1ccnc1CN(Cc1ccc(CN2CCC3(CCN(C4CCCCC4)CC3)C2)cc1)Cc1ncc[nH]1 [Example 9, (2-{[{4-[(8-cyclohexyl-2,8-diazaspiro[4.5]dec-2-yl)methyl]benzyl}(1H-imidazol-2-ylmethyl)amino]methyl}-1H-imidazol-1-yl)acetic Acid] | 8.32 | Negative (The compound wherein a value of the binding response after the correction was 150 or more was determined as positive) | 59.0 RU | 10% | Negative (A test dose that indicated value of 25% or more of the maximum phospholipid accumulation increase rate of amiodarone which was the positive control was determined as positive) |
| CC(OC(=O)CCn1ccnc1CN(Cc1ccc(CN2CCC3(CCN(C4CCCCC4)CC3)C2)cc1)Cc1ncc[nH]1)OC(=O)OC1CCCCC1 (centres unmarked) [Example 36, 1-{[(cyclohexyloxy)carbonyl]oxy}ethyl 3-(2-{[{4-[(8-cyclohexyl-2,8-diazaspiro[4.5]dec-2-yl)methyl]benzyl}(1H-imidazol-2-ylmethyl)amino]methyl}-1H-imidazol-1-yl)propanoate] | 7.69 |  |  |  |  |
| CCOC(=O)CCCn1ccnc1CN(Cc1ccc(CN2CCC3(CCN(CC(C)C)CC3)C2)cc1)Cc1ncc[nH]1 [Example 37 (1), Ethyl 4-(2-{[(1H-imidazol-2-ylmethyl){4-[(8-isobutyl-2,8-diazaspiro[4.5]dec-2-yl)methyl]benzyl}amino]methyl}-1 H-imidazol-1-yl)butanoate] | 7.86 |  |  |  |  |
| CCOC(=O)CCCn1ccnc1CN(Cc1ccc(CN2CCC3(CCN(C(CC)CC)CC3)C2)cc1)Cc1ncc[nH]1 [Example 37 (3), Ethyl 4-(2-{[(4-{[8-(1-ethylpropyl)-2,8-diazaspiro[4.5]dec-2-yl]methyl]benzyl)(1 H-imidazol-2-ylmethyl)amino]methyl}-1H-imidazol-1-yl)butanoate] | 7.93 |  |  |  |  |
| CC(C)CN1CCC2(CC1)CCN(Cc1ccc(CN(Cc3ncc[nH]3)Cc3nccn3CCCC(=O)O)cc1)C2 [Example 38 (1), 4-(2-{[(1H-imidazol-2-ylmethyl){4-[(8-isobutyl-2,8-diazaspiro[4.5]dec-2-yl)methyl]benzyl}amino]methyl}-1H-imidazol-1-yl)butanoic Acid] | 7.73 | Negative (The compound wherein a value of the binding response after the correction was 150 or more was determined as positive) | 5.4 RU | 8% | Negative (A test dose that indicated value of 25% or more of the maximum phospholipid accumulation increase rate of amiodarone which was the positive control was determined as positive) |
| CCC(CC)N1CCC2(CCN(Cc3ccc(CN(Cc4ncc[nH]4)Cc4nccn4CCCC(=O)O)cc3)C2)CC1 [Example 38 (3), 4-(2-{[(4-{[8-(1-ethylpropyl)-2,8-diazaspiro[4.5]dec-2-yl]methyl]benzyl)(1H-imidazol-2-ylmethyl)amino]methyl}-1H-imidazol-1-yl)butanoic Acid] | 7.92 | Negative (The compound wherein a value of the binding response after the correction was 150 or more was determined as positive) | 98.9 RU | 11% | Negative (A test dose that indicated value of 25% or more of the maximum phospholipid accumulation increase rate of amiodarone which was the positive control was determined as positive) |

From patent publication US8618122B2, “Compound having acidic group which may be protected, and use thereof” (Ono Pharmaceutical Co., Ltd., priority 2006, dated 2013)
